Experimental data: PubChem BioAssay (NCI)
Several values for one entry are separate records, joined by “and”; a condition that tells them apart may be missing. Identical values can stand only once.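 How tested: cells in 96-well plates exposed to compound for 48 hours at five concentrations. GI50 marks 50% less growth. TGI: total growth inhibition.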 Where a SMILES comes first, the peptide text is derived from it.

Assays:
Assay in all cases: NCI tumour cell line growth inhibition, 48 h
HCC-2998 colon = tested on: HCC-2998 colon
COLO 205 colon = tested on: COLO 205 colon
U251 CNS = tested on: U251 CNS
HT29 colon = tested on: HT29 colon
KM12 colon = tested on: KM12 colon
OVCAR-4 ovarian = tested on: OVCAR-4 ovarian
OVCAR-3 ovarian = tested on: OVCAR-3 ovarian
MOLT-4 leukemia = tested on: MOLT-4 leukemia
SF-539 CNS = tested on: SF-539 CNS
SR leukemia = tested on: SR leukemia
LOX IMVI melanoma = tested on: LOX IMVI melanoma
NCI-H23 lung = tested on: NCI-H23 lung
SNB-75 CNS = tested on: SNB-75 CNS
OVCAR-5 ovarian = tested on: OVCAR-5 ovarian
NCI-H522 lung = tested on: NCI-H522 lung
T-47D breast = tested on: T-47D breast

SMILES	TGI (HCC-2998 colon) [µM]	TGI (COLO 205 colon) [µM]	TGI (U251 CNS) [µM]	TGI (HT29 colon) [µM]	TGI (KM12 colon) [µM]	TGI (OVCAR-4 ovarian)	TGI (OVCAR-3 ovarian) [µM]	TGI (MOLT-4 leukemia) [µM]	TGI (SF-539 CNS) [µM]	TGI (SR leukemia) [µM]	TGI (LOX IMVI melanoma) [µM]	TGI (NCI-H23 lung) [µM]	TGI (SNB-75 CNS) [µM]	TGI (OVCAR-5 ovarian) [µM]	TGI (NCI-H522 lung) [µM]	TGI (T-47D breast) [µM]	GI50 (OVCAR-4 ovarian) [µM]	GI50 (NCI-H522 lung) [µM]
CCCCCC(CN1CCOCC1)C(=O)/C=C/c1ccccc1 (centres undefined)	4.46	13.9	9.19	10.3	3.79	8.19 µM	8.64	4.61	4.71	8.5	2.67	11.9	20	11.1				
NC(=O)NC(=O)c1cnccn1	> 100		> 100		> 100	> 100 µM	> 100	> 100	> 100		> 100	> 100		> 100	> 100			
Cc1cc2nc3n[nH]c(N)c3nc2cc1C	> 100	> 100	> 100	> 100	> 100	> 100 µM		> 100		> 100	> 100	> 100	87.8	> 100	> 100			
CSC1=N/C(=C\c2ccc(C)cc2)C(=O)N1CN1CCOCC1		> 100	> 100		> 100	32.9 µM	> 100	> 100		> 100	> 100	> 100	> 100	> 100	> 100			
c1ccc2c(c1)ccc1nc(-c3ccc4c(c3)OCO4)c3c(c12)CCCC3	> 100	41.7	> 100	> 100	24.2	64.8 µM	> 100	> 100	34.2			> 100	> 100	> 100		94.5		
CCN(CC)CCn1c(C(C)(C)C)nc2ccccc21	> 100	> 100	> 100	> 100	> 100	> 100 µM	> 100	> 100	> 100	> 100		> 100	> 100	> 100	> 100			
CC1=C2C(O)C(C(C)C(=O)NCC(C)C)CCC2(C)C=CC1=O (centres undefined)	> 100	> 100	> 100	> 100	> 100	> 100 µM	> 100	> 100	> 100		> 100	> 100	> 100	> 100	> 100			
O=C(OCCN=C1c2ccccc2CCc2ccccc21)c1cc([N+](=O)[O-])cc([N+](=O)[O-])c1		> 31.6	> 100	> 31.6	> 31.6	> 100 µM	> 31.6	7.09	> 31.6	5.5	> 31.6	> 31.6	> 100	> 31.6				
CC(=O)ON(OC(C)=O)c1ccc(C)cc1	> 100	> 100	> 100	> 100	> 100	> 100 µM	> 100	> 100				> 100	> 100	> 100	> 100			
S=c1[nH]nc(COc2ccc3c(c2)CCCC3)n1/N=C/c1ccc(Cl)cc1		31.2	34.6		31.7	32.8 µM	30.7	46.9	32.8		37	35.9		32	28.9	30.3		
C=C1C(=O)O[C@@H]2[C@H]3O[C@]3(C)CCC=C(C)CC[C@@H]12	56.1	31.7	88.6	68.8	53.6	45.3 µM	40.7	92	44.6		21.2	52.7	123	63.6	17.1			
O=C(Cn1c(=O)ccn(C2OC(CO)C(O)C2F)c1=O)c1ccc(F)cc1 (centres undefined)		> 100	> 100	> 100	> 100		> 100	> 100	> 100		> 100	> 100	> 100	> 100	> 100	> 100		
Cc1ccc(-c2c(C#N)c(-c3ccc(Cl)cc3)c(C#N)c(=O)n2NS(=O)(=O)c2ccccc2)cc1	> 100	> 100	> 100	> 100	> 100	> 100 µM		> 100	> 100		> 100		> 100	> 100	> 100			
CC/C(=N\NC(=O)c1cccnc1)c1ccc2c(c1)OCCO2		> 100	> 100	> 100	> 100	> 100 µM	> 100	> 100	> 100		> 100	> 100	> 100	> 100	79.5	> 100		
O=C(O)CC(C(=O)O)c1ccccc1[N+](=O)[O-] (centres undefined)	> 100	> 100	> 100	> 100	> 100	> 100 µM	> 100				> 100	> 100	> 100	> 100	> 100	> 100		
CC(=O)/C(C=Nc1c(C)n(C)n(-c2ccccc2)c1=O)=C(/C)O	> 100	> 100	> 100		> 100	> 100 µM	> 100	> 100	> 100	> 100	> 100	> 100	> 100	> 100	> 100			
CCOC(=O)CC(=O)NC1CC2CCC1(C)C2(C)C (centres undefined)	> 100	> 100	> 100	> 100	> 100	> 100 µM	> 100	> 100	> 100	> 100	> 100	> 100	> 100	> 100				
CC(C)=CCC[C@]1(C)CC[C@]2(C)C3CCC(=C(C)C)[C@@H](CCCO)[C@]3(C)CC[C@@]2(C)C1 (some centres undefined)	> 100	> 100	61.4	> 100	> 100	> 100 µM	> 100	> 100				> 100	> 100	> 100	37.2	29.6		
C=CC1(C)CCC(C(C)C(=O)C(C=C(C)C)OC(C)=O)C12C(=O)Oc1ccccc1C2=O (centres undefined)	> 100	> 100	> 100	> 100	> 100	> 100 µM	> 100	78.7	> 100	> 100	> 100	> 100	> 100		> 100			
CCOC(=O)/C(C#N)=C/c1ccc2c(-c3c(OCC)ccc4cc(/C=C(\C#N)C(=O)OCC)ccc34)c(OCC)ccc2c1	> 100	> 100	> 100	> 100	> 100	> 100 µM	> 100	> 100			> 100	> 100	> 100	> 100	> 100	> 100		
NC(N)=NCCCC(N=c1c2ccccc2n(O)c2ccccc12)C(=O)O (centres undefined)	> 100	> 100	> 100		> 100	> 100 µM	> 100	> 100			> 100	> 100	87.6	> 100	> 100			
CC1NC(=O)CNC(=O)CNC(=O)C(Cc2ccc(O)cc2)NC(=O)C(C(C)C)NC(=O)C(C)NC1=O (centres undefined) (cyclo(GGAAVY); configuration not given here)	> 100	> 100	> 100	> 100	> 100	> 100 µM and 22.7 µM	> 100	> 100	> 100		> 100	> 100	> 100	> 100	> 100		> 100	> 100
Cc1cc(-c2ccc(C(=O)O)[nH]2)on1	> 100	> 100	> 100	> 100	> 100	> 100 µM	> 100	> 100				> 100	> 100	> 100	> 100			
CNc1ncnc(Sc2nc(N)nc3nc[nH]c23)c1[N+](=O)[O-]		5.53	26.9	> 49.5	25.3	18.7 µM	12	4.77	28.9		12.2	13.9	2.83	> 77.4	6.76	16.8		
NC(=S)/N=C/c1c(O)c2ccccc2oc1=O	> 100	> 100	> 100	> 100	> 100	> 100 µM	> 100	> 100	> 100		> 100	> 100	87	> 100	> 100			
CCN1CC2=C(N=c3s/c(=C\c4ccc(Cl)cc4)c(=O)n3C2c2ccc(Cl)cc2)/C(=C/c2ccc(Cl)cc2)C1 (centres undefined)	> 100	> 100	> 100	> 100	> 100	> 100 µM	> 100	> 100			> 100	> 100	9.74	> 100	> 100			
